Assay results from patent publication US7824672B2, “Method for coating living cells” (Emory University, priority 2004, dated 2010).
Residues, ends and D or L forms follow the SMILES beside them. *: point of attachment. Cbz = O=C(OCc1ccccc1)*; CH2F = FC*

Assays:
[1] = biotin binding sites; cited from earlier work
[2] = test system: islet-induced coagulation; settings: ex vivo model; cited from earlier work
Factor V = settings: cited from earlier work
[3] = systemic; cited from earlier work
rat islets = experiment: Viability of encapsulated rat islets after overnight culture; assay type: cell-based; settings: nicotinamide 10 mM, Z-VAD.fmk 40 μM
Method: Transplantation of islets microencapsulated within a membrane-mimetic barrier. Evaluation of cell viability. Initial experiments used CHO cells as a readily available model system to assess cell viability after encapsulation. Cells were suspended into alginate solution at 6×10^6 cells/mL and then coated with a photopolymerized membrane-mimetic lipid film. Cell viability of >95% at 24 and 48 hours was confirmed using a Live/Dead cell assay (Molecular Probes, Inc.). In the next phase of this effort, we determined the viability of encapsulated rat islets (103). Rat islets were isolated from outbred male Wistar rats and suspended at a concentration of 1000 islets in 0.25 mL of 2% alginate (UP LVM, Pronova Biomedical, Norway). Alginate encapsulated islets were coated with a membrane-mimetic film and after overnight culture viability was graded with respect to the proportion of viable cells within a given islet.

[4] = CD39 ADPase activity kinetics (inorganic phosphate release); assay type: biochemical; settings: substrate ADP 50-1500 μM; vesicles: molar ratio CD39:POPC 1:33,613
From the text: (§1) We have expressed and purified human CD39 from Pichia pastoris and confirmed both ecto-ATPase and ecto-ADPase activity. […] Briefly, the plasmid carrying the CD39 human coding sequence was provided by Dr. Simon C. Robson (Harvard Medical School, USA). Polymerase chain reaction (PCR) was utilized to add a Kozak sequence flanked by EcoRI to the […] of CD39 and a FLAG tag flanked by XbaI to the 3′ end of CD39. The construct was harbored in pCR 2.1-TOPO (Invitrogen, San Diego, Calif.) and multiplied in One Shot Top10 (Invitrogen). To express CD39 in yeast, the EcoRI/XbaI digestion product was cloned into pPICZ (Invitrogen) and transformed into Pichia pastoris strain SMD1168 (Invitrogen). The expression construct was confirmed through DNA sequencing analysis. P. pastoris cultures were grown at 30° C. and expression induced for 4 days with 0.5% methanol. Cells were harvested, resuspended in breaking buffer, and cell lysates centrifuged to separate membrane and soluble fractions. […] CD39 was extracted from membrane fractions using 1% Igepal CA-630 and purified on anti-FLAG M2 affinity columns (Sigma, Saint Louis, Mo.). Kinetic parameters were measured for both detergent-solubilized CD39 and for protein reconstituted in POPC lipid vesicles at varying molar ratios of CD39 to lipid (1:85,714, 1:33,613, 1:16,806). […] Inorganic phosphate was measured as described by Ames (116). […]

[5] = CD39 ATPase activity kinetics (inorganic phosphate release); assay type: biochemical; settings: substrate ATP 50-1500 μM; vesicles: molar ratio CD39:POPC 1:33,613
From the text: as §1

In the case of “avidin: biotin binding protein with four biotin binding sites”, the “binding affinity (log)” value [1] is listed as > 15.

For heparin, the “concentration that prevented islet-induced coagulation” value [2] is listed as 4 U/mL blood, the “enhancement of APC's ability to inactivate Factor V” value (Factor V) is listed as “four-fold” and the half-life [3] is listed as “one hour”.

With `NC(=O)c1cccnc1` [nicotinamide] the “effect of anti-apoptotic agent on islet viability” value (rat islets) was “important adjuncts for maximizing islet viability”.

With `COC(=O)C[C@H](NC(=O)[C@H](C)NC(=O)[C@@H](NC(=O)OCc1ccccc1)C(C)C)C(=O)CF` [Z-VAD.fmk] (Cbz-Val-Ala-Asp(OMe)-CH2F) the “effect of anti-apoptotic agent on islet viability” value (rat islets) was “important adjuncts for maximizing islet viability”.

B1: Free CD39: detergent-solubilized human CD39 expressed in Pichia pastoris, FLAG tagged (protein, UniProt P49961 1-510, looked up)
Ectonucleoside triphosphate …: MEDTKESNVKTFCSKNILAILGFSSIIAVIALLAVGLTQNKALPENVKYGIVLDAGSSHTSLYIYKWPAEKENDTGVVHQVEECRVKGPGISKFVQKVNEIGIYLTDCMERAREVIPRSQHQETPVYLGATAGMRLLRMESEELADRVLDVVERSLSNYPFDFQGARIITGQEEGAYGWITINYLLGKFSQKTRWFSIVPYETNNQETFGALDLGGASTQVTFVPQNQTIESPDNALQFRLYGKDYNVYTHSFLCYGKDQALWQKLAKDIQVASNEILRDPCFHPGYKKVVNVSDLYKTPCTKRFEMTLPFQQFEIQGIGNYQQCHQSILELFNTSYCPYSQCAFNGIFLPPLQGDFGAFSAFYFVMKFLNLTSEKVSQEKVTEMMKKFCAQPWEEIKTSYAGVKEKYLSEYCFSGTYILSLLLQGYHFTADSWEHIHFIGKIQGSDAGWTLGYMLNLTNMIPAEQPLSTPLSHSTYVFLMVLFSLVLFTVAIIGLLIFHKPSYFWKDMV
modifications: FLAG tag
notes: detergent-solubilized human CD39 expressed in Pichia pastoris, FLAG tagged
In the case of B1, the Km [4] is reported as 45.8 µM and the Km [5] is reported as 58.5 µM.
